Patent publication US7183267B2, “β-lactamase inhibitors and methods of use thereof” (priority 2003, dated 2007)

Experiments:
Format in all cases: cell-based
[1] = tested on: methicillin resistant S. aureus ATCC 33591 (MRSA-ATCC); assay: MIC assay, broth microdilution, MRSA-ATCC; details: Staphylococcus aureus; MRSA-ATCC; substance alone; at least 24 hours at 35° C.; read-out: MIC
Outline: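 MRSA ATCC 33591 in Mueller-Hinton broth, inoculum about 5×10^5 CFU/ml; compounds tested as 8 two-fold doses 512–4 μg/ml (oxacillin 64–0.5 μg/ml) from DMSO dilutions, in duplicate. Incubated at least 24 h at 35° C; MIC is lowest dose with no visible growth.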

[2] = tested on: methicillin resistant S. aureus from Stanford University Hospital (MRSA-SU); assay: MIC assay, broth microdilution, MRSA-SU; details: Staphylococcus aureus; MRSA-SU; substance alone; at least 24 hours at 35° C.; read-out: MIC
Outline: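 MRSA clinical isolate from Stanford University Hospital, tested in duplicate by NCCLS (2000) broth microdilution in Mueller-Hinton broth at 5×10^5 CFU/ml. Compounds were tested as two-fold dilutions at 512–4 μg/ml, with DMSO stocks, and incubated ≥24 h at 35 °C. MIC was the lowest dose with no visible growth.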

[3] = tested on: methicillin resistant S. aureus from Stanford University Hospital (MRSA-SU); assay: Matrix system: oxacillin plus β-lactamase inhibitor, MRSA-SU; parameters: key to growth score: 0 = no growth, 3 = growth equal to negative solvent control
Description: To each well of a 96 well microtiter plate was added 47.5 μl of MHB. A volume of 2.5 μl of each dilution of oxacillin was then transferred to appropriate wells containing the medium. All wells, except the sterility control wells, were then inoculated with 50 μl of a diluted cell suspension to give a final volume of 100 μl and a final cell density of 5×10^4 CFU/well. The volume in the sterility control wells was adjusted to 100 μl with MHB. A sterile pipette tip was used to mix the contents of each well (one tip was used going from the low to the high concentration in the same column). The microtiter plates were covered with the lids and were placed in large Stratagene Big Blue plates (Cat. # 400041). Four large kimwipes moistened with tap water were placed near the edges of the Stratagene plates to prevent evaporation of the medium. The microtiter plates were incubated for at least 24 hours at 35° C. The plates were then evaluated for growth in each well. Controls included: medium sterility and negative control (medium and bacteria only).
A numerical code was used to evaluate the extent of growth as indicated below. • 0: absence of growth • 1: barely visible (faint) growth • 2: fair growth but less than the negative solvent control • 3: growth is equivalent to the negative solvent control.
The lowest dose at which no visible growth is observed was determined to be the MIC value.
The effect of the four compounds of the present invention on oxacillin resistance of the MRSA strains was determined using a matrix system. The β-lactamase inhibitors were tested at 5 doses against up to eleven concentrations of oxacillin. […] A 96-well microtiter plate was used for the matrix system. The procedure was identical to that described above for the MIC determination, with the exception that both oxacillin and one each of the β-lactamase inhibitors was added, 2.5 μl each, to the wells prior to addition of the test organisms.
Matrix Study:Oxacillin and Compound FL201 with MRSA-SU
Matrix Study: Oxacillin and Compound FL202 with MRSA-SU

Cc1onc(-c2ccccc2)c1C(=O)N[C@@H]1C(=O)N2[C@@H]1SC(C)(C)[C@@H]2C(=O)O [Oxacillin, reference compound]
1: growth score ([3]; Table 17, oxacillin 128 μg/ml, F1201 0)
3: growth score ([3]; Table 17, oxacillin 0.064 μg/ml, F1201 0) | growth score ([3]; Table 17, oxacillin 0.125 μg/ml, F1201 0) | growth score ([3]; Table 17, oxacillin 0.25 μg/ml, F1201 0) | growth score ([3]; Table 17, oxacillin 0.5 μg/ml, F1201 0) | growth score ([3]; Table 17, oxacillin 1 μg/ml, F1201 0) | growth score ([3]; Table 17, oxacillin 2 μg/ml, F1201 0) | growth score ([3]; Table 17, oxacillin 4 μg/ml, F1201 0) | growth score ([3]; Table 17, oxacillin 16 μg/ml, F1201 0) | growth score ([3]; Table 18, oxacillin 0.064 μg/ml, F1202 0) | growth score ([3]; Table 18, oxacillin 0.125 μg/ml, F1202 0) | growth score ([3]; Table 18, oxacillin 0.25 μg/ml, F1202 0) | growth score ([3]; Table 18, oxacillin 0.5 μg/ml, F1202 0) | growth score ([3]; Table 18, oxacillin 1 μg/ml, F1202 0) | growth score ([3]; Table 18, oxacillin 2 μg/ml, F1202 0) | growth score ([3]; Table 18, oxacillin 4 μg/ml, F1202 0) | growth score ([3]; Table 18, oxacillin 16 μg/ml, F1202 0)
0: growth score ([3]; Table 17, oxacillin 256 μg/ml, F1201 0) | growth score ([3]; Table 18, oxacillin 256 μg/ml, F1202 0)
> 64 µg/mL: MIC [2]
2: growth score ([3]; Table 17, oxacillin 64 μg/ml, F1201 0) | growth score ([3]; Table 18, oxacillin 64 μg/ml, F1202 0) | growth score ([3]; Table 18, oxacillin 128 μg/ml, F1202 0)
32 µg/mL: MIC [1]
256 µg/mL: MIC ([3]; Staphylococcus aureus, 24 h, Table 17, oxacillin alone, F1201 0) | MIC (oxacillin) ([3]; Table 18, oxacillin alone, F1202 0)
